These results are taken from PMC3433560 (Bioorganic & medicinal chemistry letters, 2012).

The target of the experiment is KCNQ1 channels (Homo sapiens, UniProt P51787). Briefly: cell-based.

Each structure is given as a SMILES string.

Chain of KCNQ1 channels (P51787 whole entry): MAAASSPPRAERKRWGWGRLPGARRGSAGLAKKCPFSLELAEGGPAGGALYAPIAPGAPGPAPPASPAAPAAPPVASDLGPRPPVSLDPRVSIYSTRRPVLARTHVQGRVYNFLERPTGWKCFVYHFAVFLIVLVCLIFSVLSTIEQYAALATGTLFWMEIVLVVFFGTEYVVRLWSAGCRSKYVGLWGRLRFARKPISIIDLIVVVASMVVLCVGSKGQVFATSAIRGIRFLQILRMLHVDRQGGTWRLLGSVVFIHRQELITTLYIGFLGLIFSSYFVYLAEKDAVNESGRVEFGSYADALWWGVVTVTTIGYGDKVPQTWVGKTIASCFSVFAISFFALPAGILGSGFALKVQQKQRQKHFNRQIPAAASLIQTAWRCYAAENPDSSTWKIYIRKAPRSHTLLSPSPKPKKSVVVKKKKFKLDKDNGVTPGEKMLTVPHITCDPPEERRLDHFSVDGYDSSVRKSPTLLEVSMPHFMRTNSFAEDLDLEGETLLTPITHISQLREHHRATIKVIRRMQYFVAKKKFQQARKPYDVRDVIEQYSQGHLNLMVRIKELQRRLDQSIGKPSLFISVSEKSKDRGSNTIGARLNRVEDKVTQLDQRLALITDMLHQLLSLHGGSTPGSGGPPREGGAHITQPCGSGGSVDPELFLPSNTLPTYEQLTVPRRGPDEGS

By EC50 is commonly meant the concentration needed to bring the measured effect to its halfway point. Low values mean an effect from little substance, high ones a need for much substance. On to `COc1ccc(-c2csc(NC(=O)C3CCCCN3S(=O)(=O)c3ccccc3)n2)cc1` (stereo not shown) [compound 5], for which the EC50 was 660 nM.
